CC(C)NC(=O)COc1cccc(-c2nc(Nc3ccc4[nH]ncc4c3)c3ccccc3n2)c1 [Belumosudil, 2-{3-[4-(1H-indazol-5-ylamino)-2-quinazolinyl]phenoxy}-N-(propan-2-yl) acetamide]
Patients with relative dose intensity >95% (Cohort 1): 77% | Abdominal distension: # Events (Cohort 1 200 mg QD): 1 | Abdominal distension: Affected/At Risk (Cohort 1 200 mg QD): 1/17 | Abdominal distension: Affected/At Risk (%) (Cohort 1 200 mg QD): (5.88%) | Abdominal pain upper: # Events (Cohort 1 200 mg QD): 1 | Abdominal pain upper: Affected/At Risk (Cohort 1 200 mg QD): 1/17 | Abdominal pain upper: Affected/At Risk (%) (Cohort 1 200 mg QD): (5.88%) | Abdominal pain: # Events (Cohort 1 200 mg QD): 2 | Abdominal pain: Affected/At Risk (Cohort 1 200 mg QD): 2/17 | Abdominal pain: Affected/At Risk (%) (Cohort 1 200 mg QD): (11.76%) | Actinic keratosis: # Events (Cohort 1 200 mg QD): 0 | Actinic keratosis: Affected/At Risk (Cohort 1 200 mg QD): 0/17 | Actinic keratosis: Affected/At Risk (%) (Cohort 1 200 mg QD): (0%) | Acute kidney injury: # Events (Cohort 1 200 mg QD): 4 | Acute kidney injury: Affected/At Risk (Cohort 1 200 mg QD): 1/17 | Acute kidney injury: Affected/At Risk (%) (Cohort 1 200 mg QD): (5.88%) | Acute respiratory distress syndrome: # Events (Cohort 1 200 mg QD): 1 | Acute respiratory distress syndrome: Affected/At Risk (Cohort 1 200 mg QD): 1/17 | Acute respiratory distress syndrome: Affected/At Risk (%) (Cohort 1 200 mg QD): (5.88%) | Adrenal insufficiency: # Events (Cohort 1 200 mg QD): 2 | Adrenal insufficiency: Affected/At Risk (Cohort 1 200 mg QD): 1/17 | Adrenal insufficiency: Affected/At Risk (%) (Cohort 1 200 mg QD): (5.88%) | Alanine aminotransferase increased: # Events (Cohort 1 200 mg QD): 12 | Alanine aminotransferase increased: Affected/At Risk (Cohort 1 200 mg QD): 6/17 | Alanine aminotransferase increased: Affected/At Risk (%) (Cohort 1 200 mg QD): (35.29%) | Anaemia: # Events (Cohort 1 200 mg QD): 14 | Anaemia: Affected/At Risk (Cohort 1 200 mg QD): 5/17 | Anaemia: Affected/At Risk (%) (Cohort 1 200 mg QD): (29.41%) | Anal incontinence: # Events (Cohort 1 200 mg QD): 2 | Anal incontinence: Affected/At Risk (Cohort 1 200 mg QD): 1/17 | Anal incontinence: Affected/At Risk (%) (Cohort 1 200 mg QD): (5.88%) | Anxiety: # Events (Cohort 1 200 mg QD): 1 | Anxiety: Affected/At Risk (Cohort 1 200 mg QD): 1/17 | Anxiety: Affected/At Risk (%) (Cohort 1 200 mg QD): (5.88%) | Arthralgia: # Events (Cohort 1 200 mg QD): 1 | Arthralgia: Affected/At Risk (Cohort 1 200 mg QD): 1/17 | Arthralgia: Affected/At Risk (%) (Cohort 1 200 mg QD): (5.88%) | Aspartate aminotransferase increased: # Events (Cohort 1 200 mg QD): 8 | Aspartate aminotransferase increased: Affected/At Risk (Cohort 1 200 mg QD): 5/17 | Aspartate aminotransferase increased: Affected/At Risk (%) (Cohort 1 200 mg QD): (29.41%) | Asthenia: # Events (Cohort 1 200 mg QD): 0 | Asthenia: Affected/At Risk (Cohort 1 200 mg QD): 0/17 | Asthenia: Affected/At Risk (%) (Cohort 1 200 mg QD): (0%) | Atelectasis: # Events (Cohort 1 200 mg QD): 1 | Atelectasis: Affected/At Risk (Cohort 1 200 mg QD): 1/17 | Atelectasis: Affected/At Risk (%) (Cohort 1 200 mg QD): (5.88%) | Back pain: # Events (Cohort 1 200 mg QD): 0 | Back pain: Affected/At Risk (Cohort 1 200 mg QD): 0/17 | Back pain: Affected/At Risk (%) (Cohort 1 200 mg QD): (0%) | Balance disorder: # Events (Cohort 1 200 mg QD): 0 | Balance disorder: Affected/At Risk (Cohort 1 200 mg QD): 0/17 | Balance disorder: Affected/At Risk (%) (Cohort 1 200 mg QD): (0%) | Basal cell carcinoma: # Events (Cohort 1 200 mg QD): 0 | Basal cell carcinoma: Affected/At Risk (Cohort 1 200 mg QD): 0/17 | Basal cell carcinoma: Affected/At Risk (%) (Cohort 1 200 mg QD): (0%) | Benign prostatic hyperplasia: # Events (Cohort 1 200 mg QD): 1 | Benign prostatic hyperplasia: Affected/At Risk (Cohort 1 200 mg QD): 1/17 | Benign prostatic hyperplasia: Affected/At Risk (%) (Cohort 1 200 mg QD): (5.88%) | Blepharitis: # Events (Cohort 1 200 mg QD): 1 | Blepharitis: Affected/At Risk (Cohort 1 200 mg QD): 1/17 | Blepharitis: Affected/At Risk (%) (Cohort 1 200 mg QD): (5.88%) | Blister: # Events (Cohort 1 200 mg QD): 0 | Blister: Affected/At Risk (Cohort 1 200 mg QD): 0/17 | Blister: Affected/At Risk (%) (Cohort 1 200 mg QD): (0%) | Blood alkaline phosphatase increased: # Events (Cohort 1 200 mg QD): 6 | Blood alkaline phosphatase increased: Affected/At Risk (Cohort 1 200 mg QD): 4/17 | Blood alkaline phosphatase increased: Affected/At Risk (%) (Cohort 1 200 mg QD): (23.53%) | Blood chloride decreased: # Events (Cohort 1 200 mg QD): 0 | Blood chloride decreased: Affected/At Risk (Cohort 1 200 mg QD): 0/17 | Blood chloride decreased: Affected/At Risk (%) (Cohort 1 200 mg QD): (0%) | Blood cholesterol increased: # Events (Cohort 1 200 mg QD): 2 | Blood cholesterol increased: Affected/At Risk (Cohort 1 200 mg QD): 1/17 | Blood cholesterol increased: Affected/At Risk (%) (Cohort 1 200 mg QD): (5.88%) | Blood creatine increased: # Events (Cohort 1 200 mg QD): 0 | Blood creatine increased: Affected/At Risk (Cohort 1 200 mg QD): 0/17 | Blood creatine increased: Affected/At Risk (%) (Cohort 1 200 mg QD): (0%) | Blood creatine phosphokinase increased: # Events (Cohort 1 200 mg QD): 1 | Blood creatine phosphokinase increased: Affected/At Risk (Cohort 1 200 mg QD): 1/17 | Blood creatine phosphokinase increased: Affected/At Risk (%) (Cohort 1 200 mg QD): (5.88%) | Blood creatinine increased: # Events (Cohort 1 200 mg QD): 1 | Blood creatinine increased: Affected/At Risk (Cohort 1 200 mg QD): 1/17 | Blood creatinine increased: Affected/At Risk (%) (Cohort 1 200 mg QD): (5.88%) | Blood loss anaemia: # Events (Cohort 1 200 mg QD): 1 | Blood loss anaemia: Affected/At Risk (Cohort 1 200 mg QD): 1/17 | Blood loss anaemia: Affected/At Risk (%) (Cohort 1 200 mg QD): (5.88%) | Bronchial secretion retention: # Events (Cohort 1 200 mg QD): 0 | Bronchial secretion retention: Affected/At Risk (Cohort 1 200 mg QD): 0/17 | Bronchial secretion retention: Affected/At Risk (%) (Cohort 1 200 mg QD): (0%) | Bronchitis: # Events (Cohort 1 200 mg QD): 1 | Bronchitis: Affected/At Risk (Cohort 1 200 mg QD): 1/17 | Bronchitis: Affected/At Risk (%) (Cohort 1 200 mg QD): (5.88%) | Bronchoscopy: # Events (Cohort 1 200 mg QD): 1 | Bronchoscopy: Affected/At Risk (Cohort 1 200 mg QD): 1/17 | Bronchoscopy: Affected/At Risk (%) (Cohort 1 200 mg QD): (5.88%) | Catheter site haemorrhage: # Events (Cohort 1 200 mg QD): 1 | Catheter site haemorrhage: Affected/At Risk (Cohort 1 200 mg QD): 1/17 | Catheter site haemorrhage: Affected/At Risk (%) (Cohort 1 200 mg QD): (5.88%) | Chills: # Events (Cohort 1 200 mg QD): 1 | Chills: Affected/At Risk (Cohort 1 200 mg QD): 1/17 | Chills: Affected/At Risk (%) (Cohort 1 200 mg QD): (5.88%) | Chronic kidney disease: # Events (Cohort 1 200 mg QD): 1 | Chronic kidney disease: Affected/At Risk (Cohort 1 200 mg QD): 1/17 | Chronic kidney disease: Affected/At Risk (%) (Cohort 1 200 mg QD): (5.88%) | Conjunctival haemorrhage: # Events (Cohort 1 200 mg QD): 0 | Conjunctival haemorrhage: Affected/At Risk (Cohort 1 200 mg QD): 0/17 | Conjunctival haemorrhage: Affected/At Risk (%) (Cohort 1 200 mg QD): (0%) | Conjunctivitis: # Events (Cohort 1 200 mg QD): 0 | Conjunctivitis: Affected/At Risk (Cohort 1 200 mg QD): 0/17 | Conjunctivitis: Affected/At Risk (%) (Cohort 1 200 mg QD): (0%) | Constipation: # Events (Cohort 1 200 mg QD): 1 | Constipation: Affected/At Risk (Cohort 1 200 mg QD): 1/17 | Constipation: Affected/At Risk (%) (Cohort 1 200 mg QD): (5.88%) | Contrast media allergy: # Events (Cohort 1 200 mg QD): 0 | Contrast media allergy: Affected/At Risk (Cohort 1 200 mg QD): 0/17 | Contrast media allergy: Affected/At Risk (%) (Cohort 1 200 mg QD): (0%) | Contusion: # Events (Cohort 1 200 mg QD): 2 | Contusion: Affected/At Risk (Cohort 1 200 mg QD): 2/17 | Contusion: Affected/At Risk (%) (Cohort 1 200 mg QD): (11.76%) | Corneal abrasion: # Events (Cohort 1 200 mg QD): 1 | Corneal abrasion: Affected/At Risk (Cohort 1 200 mg QD): 1/17 | Corneal abrasion: Affected/At Risk (%) (Cohort 1 200 mg QD): (5.88%) | Corneal infection: # Events (Cohort 1 200 mg QD): 0 | Corneal infection: Affected/At Risk (Cohort 1 200 mg QD): 0/17 | Corneal infection: Affected/At Risk (%) (Cohort 1 200 mg QD): (0%) | Cough: # Events (Cohort 1 200 mg QD): 1 | Cough: Affected/At Risk (Cohort 1 200 mg QD): 1/17 | Cough: Affected/At Risk (%) (Cohort 1 200 mg QD): (5.88%) | Decreased appetite: # Events (Cohort 1 200 mg QD): 4 | Decreased appetite: Affected/At Risk (Cohort 1 200 mg QD): 2/17 | Decreased appetite: Affected/At Risk (%) (Cohort 1 200 mg QD): (11.76%) | Dehydration: # Events (Cohort 1 200 mg QD): 2 | Dehydration: Affected/At Risk (Cohort 1 200 mg QD): 2/17 | Dehydration: Affected/At Risk (%) (Cohort 1 200 mg QD): (11.76%) | Depression: # Events (Cohort 1 200 mg QD): 0 | Depression: Affected/At Risk (Cohort 1 200 mg QD): 0/17 | Depression: Affected/At Risk (%) (Cohort 1 200 mg QD): (0%) | Diarrhoea: # Events (Cohort 1 200 mg QD): 9
